Columns and labels:
[1] = test system: growth hormone (GH) secretion; test: Growth Hormone Inhibition In Rats (pentobarbital-stimulated GH secretion, serum GH by radioimmunoassay); format: in vivo; parameters: Serum Growth Hormone Conc. Mean ± SEM: unit not given here; conditions: male rats; for % Inhibition of GH release (as compared to saline controls): 20 minutes; for Serum Growth Hormone Conc. Mean ± SEM: with sodium pentobarbital 4 mg/rat I.P., blood 20 minutes later
Protocol: A. Growth Hormone Inhibition In Rats:
This test is a modification of the method of P. Brazeau et al. Endocrinology, 94, 184 (1974). Male rats (weighing 100-110 g.) are divided into three groups of eight rats each. Each rat is administered sodium pentobarbital at a dose of 4 mg/rat (I.P.) to stimulate growth hormone (GH) secretion. Simultaneously, one group of rats receives the test compound (S.C.); the second group receives somatostatin (S.C.); and the third group (control) receives saline (S.C.). Twenty-minutes later, the animals are decapitated and blood samples are collected. The serum concentration of growth hormone (GH) is determined by radioimmunoassay. The mean GH concentration (± standard error of the mean) is calculated for each group. The percent inhibition of GH release (as compared to saline controls) is then calculated for the test compound and for somatostatin. When tested as above-described, the peptide of Example 4, (D-Ala^2, D-Ala^5, Cha^6, D-Trp^8, D-Val^10 -somatastatin) representative of the peptides of Formula III, gave the results set forth below in Table I: […]

serum insulin = test: Insulin Inhibition In Dogs (L-alanine infusion, serum insulin by radioimmunoassay); format: in vivo, dog
Protocol: (§1) B. Insulin and Glucagon Inhibition In Dogs:
(§2) A normal dog is fasted overnight. An intravenous (I.V.) infusion of the test compound (dissolved in saline) is begun. Thirty minutes thereafter an additional infusion of L-alanine (dissolved in saline) is begun and is continued for a total of 15 minutes so that a total dose of about 1 mmole of L-alanine per kg. body weight is given. Infusion of the test compound is continued for an additional 15 minute period.
(§3) Blood samples are taken periodically before (at -20, -10 and -1 minutes) and after (5, 10, 15, 30, 35, 40, 45, 50, 60, 90, 120 and 150 minutes) the start of the infusion of the test compound. The serum insulin and serum glucagon concentrations in the blood are determined by radioimmunoassay. A plot is made of the glucagon and insulin concentrations versus time. The plot obtained from the test compound is compared to plots obtained from somatostatin and saline (controls) in similar experiments.
(§4) Infusion of L-alanine (in the absence of somatostatin or active test compound) causes an abrupt increase in serum insulin and glucagon concentrations. The concentrations return to basal levels after the L-alanine infusion is terminated.

serum glucagon = test: Glucagon Inhibition In Dogs (L-alanine infusion, serum glucagon by radioimmunoassay); format: in vivo, dog
Protocol: as §1, §2, §3, §4

[2] = dog, I.V. infusion alone (no L-alanine)
[3] = dog, I.V. infusion in the presence of L-alanine
[4] = normal fasted dog, I.V. infusion at doses of 0.195 and 0.230 μg/Kg/min, L-alanine infusion

Compound	% Inhibition of GH release (as compared to saline controls) ([1]; dose 2 (mg/kg) S.C.) [%]	% Inhibition of GH release (as compared to saline controls) ([1]; dose 50 (mg/kg) S.C.) [%]	effect on basal serum concentration of insulin (serum insulin; [2])	effect on increase in insulin concentration induced by L-alanine (serum insulin; [3])	effect on basal serum concentration of glucagon (serum glucagon; [2])	effect on increase in glucagon concentration induced by L-alanine (serum glucagon; [3])	Serum Growth Hormone Conc. Mean ± SEM ([1]; dose 2 (mg/kg) S.C.)	Serum Growth Hormone Conc. Mean ± SEM ([1]; dose 50 (mg/kg) S.C.)	inhibition of insulin concentration (serum insulin; [4])	inhibition of glucagon concentration (serum glucagon; [4])
C[C@H](N)C(=O)NCC(=O)N[C@H]1CSSC[C@@H](C(=O)O)NC(=O)[C@H](CO)NC(=O)[C@H]([C@@H](C)O)NC(=O)[C@H](Cc2ccccc2)NC(=O)[C@H]([C@@H](C)O)NC(=O)[C@H](CCCCN)NC(=O)[C@H](Cc2c[nH]c3ccccc23)NC(=O)[C@H](Cc2ccccc2)NC(=O)[C@H](Cc2ccccc2)NC(=O)[C@H](CC(N)=O)NC(=O)[C@H](CCCCN)NC1=O [Somatostatin]	22	64	causes a decrease	inhibits the increase	causes a decrease	inhibits the increase	–	–	–	–
L-Alanyl-D-alanyl-L-cysteinyl-L-lysyl-D-alanyl-L-cyclohexylalanyl-L-phenylalanyl-D-tryptophyl-L-lysyl-D-valyl-L-phenylalanyl-L-threonyl-L-seryl-L-cysteine cyclic (3->14) disulfide [Example 4]	36	73	–	–	–	–	71.6 ± 29.5	29.8 ± 18.6	no significant inhibition	no significant inhibition
